# Like-named read-outs stand apart in the source and are kept apart here.
# What was measured:
# NHE3 [1] = target: T1, NHE3 (Homo sapiens, UniProt P48764); experiment: persistent inhibition of NHE3 in the cell-based assay of example 181 (4-chloro vs 4-cyano pairs)
# T1 construct: expressed in transfected cells
# T1 sequence (P48764 26-834): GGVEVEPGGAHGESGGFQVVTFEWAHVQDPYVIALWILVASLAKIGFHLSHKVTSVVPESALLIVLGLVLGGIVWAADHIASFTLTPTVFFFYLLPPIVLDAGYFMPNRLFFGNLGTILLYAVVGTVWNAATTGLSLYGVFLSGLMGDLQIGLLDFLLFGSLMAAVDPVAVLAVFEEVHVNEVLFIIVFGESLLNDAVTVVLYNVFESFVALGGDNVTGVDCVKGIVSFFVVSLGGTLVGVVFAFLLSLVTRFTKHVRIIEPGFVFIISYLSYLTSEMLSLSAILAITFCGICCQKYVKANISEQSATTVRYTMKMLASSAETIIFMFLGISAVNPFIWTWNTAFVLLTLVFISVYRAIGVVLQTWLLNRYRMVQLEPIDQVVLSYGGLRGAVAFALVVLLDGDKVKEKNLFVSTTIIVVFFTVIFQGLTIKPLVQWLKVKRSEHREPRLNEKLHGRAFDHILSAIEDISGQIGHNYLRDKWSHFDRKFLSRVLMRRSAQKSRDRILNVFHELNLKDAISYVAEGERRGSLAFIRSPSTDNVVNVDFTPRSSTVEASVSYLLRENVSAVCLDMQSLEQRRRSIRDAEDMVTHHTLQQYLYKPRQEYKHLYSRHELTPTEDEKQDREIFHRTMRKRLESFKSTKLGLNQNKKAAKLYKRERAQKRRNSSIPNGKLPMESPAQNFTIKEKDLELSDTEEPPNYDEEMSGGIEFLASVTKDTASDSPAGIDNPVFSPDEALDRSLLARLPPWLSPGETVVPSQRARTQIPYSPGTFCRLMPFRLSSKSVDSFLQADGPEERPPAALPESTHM
# T1 sequence (Q99653 2-195 partner limits assumed): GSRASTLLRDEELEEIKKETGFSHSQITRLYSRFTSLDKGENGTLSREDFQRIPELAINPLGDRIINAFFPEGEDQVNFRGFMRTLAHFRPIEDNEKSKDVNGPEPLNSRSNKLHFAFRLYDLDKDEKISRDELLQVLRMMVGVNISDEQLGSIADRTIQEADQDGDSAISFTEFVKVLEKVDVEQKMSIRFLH
# Procedure: The following pairs of compounds differ only in the 4-position substituent (either chloro (X—Cl) or cyano (X—CN)):
# The ability of compounds to inhibit human and rat NHE-3-mediated Na^+ dependent H^+ antiport after application and washout was measured using a modification of the pH sensitive dye method described above. PS120 fibroblasts stably expressing human NHE3 and NHERF2 were obtained from Mark Donowitz (Baltimore, Md.). Opossum kidney (OK) cells were obtained from the ATCC and propagated per their instructions. The rat NHE-3 gene was introduced into OK cells via electroporation, and cells were seeded into 96 well plates and grown overnight. Medium was aspirated from the wells, cells were washed once with NaCl-HEPES buffer (100 mM NaCl, 50 mM HEPES, 10 mM glucose, 5 mM KCl, 2 mM CaCl2, 1 mM MgCl2, pH 7.4), then overlayed with NaCl-HEPES buffer containing 0-30 μM test compound. After a 60 min incubation at room temperature, the test drug containing buffer was aspirated from the cells. Following aspiration, cells were washed once with NaCl-HEPES buffer without drug, then incubated for 30 min at 37° C. with NH4Cl-HEPES buffer (20 mM NH4Cl, 80 mM NaCl, 50 mM HEPES, 5 mM KCl, 2 mM CaCl2, 1 mM MgCl2, pH 7.4) containing 5 μM BCECF-AM. Cells were washed once with Ammonium free, Na^+-free HEPES (100 mM choline, 50 mM HEPES, 10 mM glucose, 5 mM KCl, 2 mM CaCl2, 1 mM MgCl2, pH 7.4) and incubated in the same buffer for 10 minutes at room temperature to lower intracellular pH. NHE-3-mediated recovery of neutral intracellular pH was initiated (10 min after compound washout) by addition of Na-HEPES buffer. […] Changes in intracellular pH were monitored using a FLIPR Tetra® (Molecular Devices, Sunnyvale, Calif.) by excitation at λex 439 to 505 nm, and measuring BCECF fluorescence at λem 538 nm. The initial rate of the fluorescence ratio change was used as a measure of NHE-mediated Na^+/H^+ activity, and reported as the change in fluorescence ratio per minute.
# NHE3 [2] = target: T1, NHE3; experiment: Cell-based assay of NHE-3 activity (pre-incubation inhibition), human; conditions: human Preincubation; for pIC50: 0-30 μM test compound
# In short: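 Activity read as initial rate of BCECF fluorescence ratio change per minute (ex 439/505, em 538 nm) following NH4Cl prepulse acid loading. Compound (0–30 μM) present during 10 min Na+-free acidification at room temperature; cells were PS120 fibroblasts stably co-expressing human NHE3 and NHERF2.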
# [3] = system: absorption of sodium from the intestinal lumen; experiment: Inhibition of intestinal sodium absorption in mice; format: in vivo; conditions: CD-1 mice, 15 mg/kg oral gavage twice daily; for response vs control in vivo at 15 mg/kg: Mus musculus, 72 h, day 3, normalized to dietary sodium intake
# Procedure: Urinary and fecal sodium excretions were measured to assess the ability of selected example compounds to inhibit the absorption of sodium from the intestinal lumen. In addition, an assessment of the absence or presence of diarrhea in response to compound treatment was made. Approximately eight-week old, male, CD-1 mice were purchased from Envigo (Livermore, Calif.), were housed 6 per cage and acclimated for at least 48 hours before study initiation. Animals were fed Harlan Teklad Global TD.160470 rodent chow (Madison, Wis.), standard laboratory rodent chow Harlan Teklad Global 2018 with the addition of 0.4% inorganic phosphorous. […] To initiate the study, mice were weighed and then individually placed in metabolic cages. Following a 3-day acclimation period to the metabolic cage, a 24-hr baseline collection of urine and feces was performed. […] Each day, measurements of body weight. 24-hour food intake, water intake, urine volume and wet fecal weight were recorded, along with any observation of diarrhea. Fecal samples were dried using a lyophilizer for at least 3 days, following which dry weight was recorded and fecal fluid content was calculated based on the difference between the wet and dry stool weights. Fecal fluid content on day 3 of compound treatment was calculated as a change from the vehicle group mean. For urine samples, the volumes were determined gravimetrically. Feces and urine were analyzed for sodium content by microwave plasma-atomic emission spectroscopy or ion chromatography, respectively. Urine samples were analyzed on an ion chromatography system (Thermo Fisher ICS-3000 or ICS-5000+) coupled with conductivity detectors. Chromatographic separation of cations was performed using an IonPac CS12A (Thermo Fisher) 2×250 mm analytical column with an isocratic elution using […] methanesulfonic acid. Concentrations were interpolated from a a standard curve (prepared in 10 mM HCl) for sodium ion based on retention time and peak area. Fecal sample analysis by Microwave Plasma Atomic Emission Spectrometry (MP-AES). Dry fecal samples were ground into a fine powder on a homogenizer and the ground samples (400-600 mg aliquots weighed) were digested with nitric acid by microwave method (Mars 6). These digested samples were diluted with 1% Nitric acid and analyzed on Agilent 4100 MP-AES. Concentrations were calculated relative to a standard curve (prepared in 1% Nitric acid) for sodium based on the signal intensity. Sodium was detected at a wavelength of 588.995 nm. Twenty-four-hour urinary sodium excretion (ma/24-hours) was calculated by multiplying urinary sodium concentration by 24-hour urine volume. Twenty-four-hour fecal sodium excretion (mg/24-hours) was calculated by multiplying fecal sodium concentration by 24-hour dry fecal weight. The urinary and fecal sodium excretion on day 3 of compound treatment were normalized to dietary sodium intake and expressed as a percentage of the vehicle mean.
# NHE3 [4] = target: T1, NHE3; experiment: Cell-based assay of NHE-3 activity (persistent inhibition), human; conditions: human Persistence, 60 min incubation then washout
# In short: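 Persistent inhibition: compound (0-30 μM, 60 min, RT, NaCl-HEPES pH 7.4) removed before assay. Human NHE3/NHERF2 PS120 cells were then BCECF-loaded during NH4Cl pulse (30 min, 37 °C), acidified in Na+-free buffer, and Na+ added 10 min after washout; antiport measured as initial fluorescence-ratio change per minute.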
SMILES,"IC50 (NHE3 [1]; cell-based assay of example 181, after washout, read-out: pIC50 (persistent) (converted)) [nM]","Percent Inhibition (NHE3 [1]; cell-based assay of example 181, persistent) [%]",% inhibition (NHE3 [2]),"Fecal fluid content (Δ from vehicle) ([3]; day 3, change from vehicle group mean)",response vs control in vivo at 15 mg/kg ([3]; read-out: Fecal Na Excretion (% of vehicle)) [%],response vs control in vivo at 15 mg/kg ([3]; read-out: Urinary Na Excretion (% of vehicle)) [%],% inhibition (NHE3 [4]),pIC50 (NHE3 [2]),pIC50 (NHE3 [4]),IC50 (NHE3 [4]) [nM]
"Cc1cc(S(=O)(=O)NCCOCCOCCNC(=O)NCCCCNC(=O)NCCOCCOCCNS(=O)(=O)c2ccc(O[C@H]3c4cc(Cl)cc(C#N)c4C[C@@H]3N3CCNCC3)c(C)c2)ccc1O[C@H]1c2cc(Cl)cc(C#N)c2C[C@@H]1N1CCNCC1 [F-CN, 3-(2-{2-[2-(4-{[(1S,2S)-6-chloro-4-cyano-2-(piperazin-1-yl)-2,3-dihydro-1H-inden-1-yl]oxy}-3-methylbenzenesulfonamido)ethoxy]ethoxy}ethyl)-1-(4-{[(2-{2-[2-(4-{[(1S,2S)-6-chloro-4-cyano-2-(piperazin-1-yl)-2,3-dihydro-1H-inden-1-yl]oxy}-3-methylbenzenesulfonamido)ethoxy]ethoxy}ethyl)carbamoyl]amino}butyl)urea]",2.51,88,–,–,–,–,–,–,–,–
"CN(C)[C@@H]1CCCN([C@H]2Cc3c(Cl)cc(Cl)cc3[C@@H]2Oc2ccc(S(=O)(=O)NCCOCCOCCNC(=O)NCCCCNC(=O)NCCOCCOCCNS(=O)(=O)c3ccc(O[C@H]4c5cc(Cl)cc(Cl)c5C[C@@H]4N4CCC[C@@H](N(C)C)C4)c(F)c3)cc2F)C1 [Example 27, 3-[2-(2-[2-[(4-[[(1S,2S)-4,6-Dichloro-2-[(3R)-3-(dimethylamino)piperidin-1-yl]-2,3-dihydro-1H-inden-1-yl]oxy]-3-fluorobenzene)sulfonamido]ethoxy]ethoxy)ethyl]-1-[4-([[2-(2-[2-[(4-[[(1S,2S)-4,6-dichloro-2-[(3R)-3-(dimethylamino)piperidin-1-yl]-2,3-dihydro-1H-inden-1-yl]oxy]-3-fluorobenzene)sulfonamido]ethoxy]ethoxy)ethyl]carbamoyl]amino)butyl]urea; bis(trifluoroacetic acid)]",–,–,C (>70%),C (>10),> 200,50 to 70,C (>70%),–,–,–
"N[C@@H]1CCCN([C@H]2Cc3c(Cl)cc(Cl)cc3[C@@H]2Oc2ccc(S(=O)(=O)N3CC[C@H](OCCOCCNC(=O)NCCCCNC(=O)NCCOCCO[C@H]4CCN(S(=O)(=O)c5ccc(O[C@H]6c7cc(Cl)cc(Cl)c7C[C@@H]6N6CCC[C@@H](N)C6)cc5)C4)C3)cc2)C1 [Example 94, 3-[2-(2-[[(3S)-1-[(4-[[(1S,2S)-2-[(3R)-3-Aminopiperidin-1-yl]-4,6-dichloro-2,3-dihydro-1H-inden-1-yl]oxy]benzene)sulfonyl]pyrrolidin-3-yl]oxy]ethoxy)ethyl]-1-[4-([[2-(2-[[(3S)-1-[(4-[[(1S,2S)-2-[(3R)-3-aminopiperidin-1-yl]-4,6-dichloro-2,3-dihydro-1H-inden-1-yl]oxy]benzene)sulfonyl]pyrrolidin-3-yl]oxy]ethoxy)ethyl]carbamoyl]amino)butyl]urea]",–,–,C (>70%),–,–,–,C (>70%),C (NHE3 pIC50 > 7),C (NHE3 pIC50 > 7),–
"COc1cc(Cl)cc2c1C[C@H](N1CCC[C@@H](N)C1)[C@H]2Oc1ccc(S(=O)(=O)NCCOCCOCCNC(=O)NCCCCNC(=O)NCCOCCOCCNS(=O)(=O)c2ccc(O[C@H]3c4cc(Cl)cc(OC)c4C[C@@H]3N3CCC[C@@H](N)C3)c(C)c2)cc1C [Example 9, 3-[2-(2-[2-[(4-[[(1S,2S)-2-[(3R)-3-Aminopiperidin-1-yl]-6-chloro-4-methoxy-2,3-dihydro-1H-inden-1-yl]oxy]-3-methylbenzene)sulfonamido]ethoxy]ethoxy)ethyl]-1-[4-([[2-(2-[2-[(4-[[(1S,2S)-2-[(3R)-3-aminopiperidin-1-yl]-6-chloro-4-methoxy-2,3-dihydro-1H-inden-1-yl]oxy]-3-methylbenzene)sulfonamido]ethoxy]ethoxy)ethyl]carbamoyl]amino)butyl]urea bis(trifluoroacetic acid)]",–,–,A (NHE3 < 40%),–,–,–,B (40-70%),C (NHE3 pIC50 > 7),–,100 to 1000
